According to ChEMBL document CHEMBL1201862, “PubChem BioAssay data set” (2004):
Activity calls are given as the source filed them.

Experiments:
Leucine aminopeptidase = molecular target: T1, Leucine aminopeptidase (Plasmodium falciparum 3D7, UniProt Q8IL11); assay: P. falciparum M17LAP inhibitors, primary screen, biochemical, fluorogenic H-Leu-NHMec substrate, 1536-well (AID 1619); type: functional
T1 sequence (Q8IL11 whole entry): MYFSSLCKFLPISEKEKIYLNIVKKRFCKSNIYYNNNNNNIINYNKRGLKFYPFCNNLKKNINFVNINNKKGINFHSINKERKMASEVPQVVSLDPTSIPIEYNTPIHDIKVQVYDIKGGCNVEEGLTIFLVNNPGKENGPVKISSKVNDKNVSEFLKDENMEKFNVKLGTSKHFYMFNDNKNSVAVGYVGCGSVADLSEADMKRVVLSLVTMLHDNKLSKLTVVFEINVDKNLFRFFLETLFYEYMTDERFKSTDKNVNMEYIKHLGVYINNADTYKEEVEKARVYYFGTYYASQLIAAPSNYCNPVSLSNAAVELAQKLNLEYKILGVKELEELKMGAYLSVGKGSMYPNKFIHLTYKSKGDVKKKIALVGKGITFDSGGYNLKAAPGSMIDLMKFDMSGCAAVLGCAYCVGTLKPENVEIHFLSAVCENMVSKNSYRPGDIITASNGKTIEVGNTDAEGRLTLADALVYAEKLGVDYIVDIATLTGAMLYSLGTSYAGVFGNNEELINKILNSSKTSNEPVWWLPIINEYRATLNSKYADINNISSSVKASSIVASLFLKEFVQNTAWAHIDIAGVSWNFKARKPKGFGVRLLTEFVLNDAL

Cytochrome P450 2D6 = Cytochrome P450 2D6 (Homo sapiens, UniProt P10635);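 also: CYP2D6 member of a cytochrome P450 panel assay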
Cytochrome P450 2C19 = Cytochrome P450 2C19 (Homo sapiens, UniProt P33261); assay: Cytochrome panel assay with activity outcomes. Panel member name: p450-cyp2c19 Compounds with AC50 equal or less than 10 uM are considered active; type: functional
BJ [1] = assay: cells; type: functional, cell-based; conditions: Homo sapiens
BJ [2] = assay: BJ-TERT fibroblast viability loss – cell-based, RAS-independent, luminescence, dose response (AID 1933); type: functional; conditions: Homo sapiens
BJ [3] = assay: BJ-TERT-LT-ST fibroblast viability loss – cell-based, RAS-independent, luminescence, dose response (AID 1935); type: functional; conditions: Homo sapiens;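 also: BJ fibroblasts immortalized with TERT plus LT and ST oncogenes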
[4] = DRD fibroblast viability loss – cell-based, non-viral oncogenic, luminescence, dose response (AID 1934); type: functional; conditions: Homo sapiens
Paired box protein Pax-8 = Paired box protein Pax-8 (Homo sapiens, UniProt Q06710); assay: PAX8 transcriptional activity inhibition in RMG-I – RMG-I cells, luciferase, cherry-pick, dose response (AID 687027); type: functional, cell-based;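 also: luciferase reporter driven by Pax8 target thyroperoxidase promoter measured by SteadyGlo luminescence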
[5] = viability of uninfected HEp-2 cells – cell-based, HTS, cytotoxicity control for RSV inhibitor project, dose response (AID 2410); type: functional; conditions: human respiratory syncytial virus
Cytochrome P450 1A2 = molecular target: T2, Cytochrome P450 1A2 (Homo sapiens, UniProt P05177);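 also: PubChem cytochrome P450 panel assay, CYP1A2 panel member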
T2 sequence (P05177 whole entry): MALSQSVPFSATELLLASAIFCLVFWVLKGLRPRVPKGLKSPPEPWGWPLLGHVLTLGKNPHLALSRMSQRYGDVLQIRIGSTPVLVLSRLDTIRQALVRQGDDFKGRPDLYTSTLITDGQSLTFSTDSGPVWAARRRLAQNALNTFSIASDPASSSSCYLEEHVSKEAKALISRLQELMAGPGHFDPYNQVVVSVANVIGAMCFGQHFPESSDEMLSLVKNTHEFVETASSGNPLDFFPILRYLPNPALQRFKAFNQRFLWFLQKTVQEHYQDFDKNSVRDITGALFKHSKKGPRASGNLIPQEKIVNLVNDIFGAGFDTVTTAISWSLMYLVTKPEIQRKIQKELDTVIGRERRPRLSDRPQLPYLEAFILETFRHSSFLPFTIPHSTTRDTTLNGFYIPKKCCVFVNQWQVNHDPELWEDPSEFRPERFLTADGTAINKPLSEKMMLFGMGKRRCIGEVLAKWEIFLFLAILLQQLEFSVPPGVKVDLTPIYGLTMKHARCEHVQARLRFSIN

[6] = molecular target: T3, Polyadenylate-binding protein 1 (Homo sapiens, UniProt P11940); assay: MLLE domain peptide-binding blockers, IC50 – biochemical, fluorescence polarization, FITC-PAM2 peptide, dose response (AID 602259); type: functional; conditions: read-out: IC50_Mean
[7] = molecular target: T3, Polyadenylate-binding protein 1; assay: MLLE binding blockers, Cy5 peptide tracer – biochemical, fluorescence polarization, Cy5-PAM2 peptide, secondary, miRNA deadenylation inhibitor project, dose response (AID 602260); type: functional; conditions: read-out: IC50_Mean
[8] = molecular target: T4, Zinc finger protein mex-5 (Caenorhabditis elegans, UniProt Q9XUB2); assay: potency of MEX-5 RNA-binding blockers – biochemical, C. elegans, fluorescence polarization, dose response (AID 1960)
T4 sequence (Q9XUB2 whole entry): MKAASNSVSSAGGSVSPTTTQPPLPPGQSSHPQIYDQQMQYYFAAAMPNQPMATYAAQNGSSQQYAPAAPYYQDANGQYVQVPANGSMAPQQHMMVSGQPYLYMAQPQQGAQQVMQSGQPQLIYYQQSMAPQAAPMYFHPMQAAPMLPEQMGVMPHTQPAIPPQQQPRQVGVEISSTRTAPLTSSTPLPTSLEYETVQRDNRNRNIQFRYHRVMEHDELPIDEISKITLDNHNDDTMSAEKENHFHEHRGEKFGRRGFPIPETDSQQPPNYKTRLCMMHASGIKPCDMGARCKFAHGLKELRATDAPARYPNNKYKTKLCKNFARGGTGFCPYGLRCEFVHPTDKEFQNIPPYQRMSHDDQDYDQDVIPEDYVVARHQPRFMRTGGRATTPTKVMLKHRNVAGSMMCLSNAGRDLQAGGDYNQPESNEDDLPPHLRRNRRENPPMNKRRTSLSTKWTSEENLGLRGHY

[9] = molecular target: T5, RNA-binding protein pos-1 (Caenorhabditis elegans, UniProt G5EF15); assay: disruptors of C. elegans POS-1 RNA interaction – biochemical, fluorescence polarization, dose response (AID 1964);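 also: purified POS-1 fused to maltose binding protein made in E. coli; potency of compounds blocking POS-1 binding to fluorescent RNA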
T5 sequence (G5EF15 whole entry): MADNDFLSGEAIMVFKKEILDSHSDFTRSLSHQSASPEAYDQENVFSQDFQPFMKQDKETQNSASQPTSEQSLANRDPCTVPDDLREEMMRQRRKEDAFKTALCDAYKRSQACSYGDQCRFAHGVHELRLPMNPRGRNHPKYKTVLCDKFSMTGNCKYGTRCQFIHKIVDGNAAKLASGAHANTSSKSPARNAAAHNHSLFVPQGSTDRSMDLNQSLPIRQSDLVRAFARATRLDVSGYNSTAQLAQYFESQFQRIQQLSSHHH

INS1 = assay: INS-1E survival protection against cytokine death – cell-based, luminescence, retest, dose response (AID 449756); type: functional; conditions: Rattus norvegicus;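 also: cell death triggered by IL-1 beta plus TNF-alpha plus IFN-gamma mixture; protective hits raise ATP signal compared with cytokine alone wells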
[10] = fluconazole-exposed Candida albicans growth modulators – fluorescence, retest, confirmation (AID 2467); type: functional, cell-based
[11] = NIH-3T3 fibroblast cytotoxicity, dose response, cytotoxicity control, cell-based, fluorescence, Alamar Blue, secondary assay (AID 2327); type: functional;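 also: NIH-3T3 mouse fibroblasts cultured with fluconazole at 8 µg/mL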
[12] = alpha-synuclein stem-loop luciferase translation blockers – H4 neuroglioma cells, luminescence, confirmation (AID 1988); type: functional, cell-based
[13] = Luminescence Cell-Based Dose Response HTS to Identify Inhibitors of 5'UTR Stem-Loop Driven Prion Protein mRNA Translation in H4 Neuroglioblastoma Cells. [Related pubchem assays: 1827 (Project Summary), 1813 (Primary HTS)]; type: functional
[14] = luciferase reporter signal suppression in cells – H4 neuroglioma cells, luminescence, dose response (AID 1990); type: functional, cell-based

T3 sequence (P11940 whole entry, the tested form may be a part): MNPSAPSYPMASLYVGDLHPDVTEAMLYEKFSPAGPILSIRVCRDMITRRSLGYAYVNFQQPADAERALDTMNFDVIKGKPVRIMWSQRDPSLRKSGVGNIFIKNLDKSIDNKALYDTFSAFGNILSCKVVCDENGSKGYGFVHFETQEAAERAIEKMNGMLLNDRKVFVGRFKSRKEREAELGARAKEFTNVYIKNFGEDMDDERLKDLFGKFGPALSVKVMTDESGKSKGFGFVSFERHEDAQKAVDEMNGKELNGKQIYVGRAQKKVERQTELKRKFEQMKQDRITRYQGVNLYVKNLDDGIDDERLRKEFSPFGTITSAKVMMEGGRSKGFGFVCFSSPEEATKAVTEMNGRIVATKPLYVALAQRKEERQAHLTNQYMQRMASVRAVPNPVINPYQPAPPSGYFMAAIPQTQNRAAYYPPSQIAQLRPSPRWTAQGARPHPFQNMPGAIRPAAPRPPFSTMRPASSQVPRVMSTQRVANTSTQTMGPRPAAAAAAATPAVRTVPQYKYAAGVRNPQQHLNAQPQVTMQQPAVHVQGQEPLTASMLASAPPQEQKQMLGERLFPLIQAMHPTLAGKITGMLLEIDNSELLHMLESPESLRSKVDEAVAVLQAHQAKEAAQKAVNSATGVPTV
Chain of Cytochrome P450 2D6 (P10635 whole entry): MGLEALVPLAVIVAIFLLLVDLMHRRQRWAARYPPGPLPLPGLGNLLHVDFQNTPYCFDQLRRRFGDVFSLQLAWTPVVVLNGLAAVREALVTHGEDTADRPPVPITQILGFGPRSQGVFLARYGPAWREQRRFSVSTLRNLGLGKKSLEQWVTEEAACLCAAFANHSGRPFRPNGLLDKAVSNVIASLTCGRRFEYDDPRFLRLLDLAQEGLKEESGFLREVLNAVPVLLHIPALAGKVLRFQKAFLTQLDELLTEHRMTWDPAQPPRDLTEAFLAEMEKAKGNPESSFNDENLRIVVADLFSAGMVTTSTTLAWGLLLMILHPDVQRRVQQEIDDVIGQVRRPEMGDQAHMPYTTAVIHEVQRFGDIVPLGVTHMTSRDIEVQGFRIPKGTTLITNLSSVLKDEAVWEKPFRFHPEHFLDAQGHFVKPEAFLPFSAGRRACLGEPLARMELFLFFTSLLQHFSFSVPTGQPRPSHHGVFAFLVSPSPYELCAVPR
Chain of Cytochrome P450 2C19 (P33261 whole entry): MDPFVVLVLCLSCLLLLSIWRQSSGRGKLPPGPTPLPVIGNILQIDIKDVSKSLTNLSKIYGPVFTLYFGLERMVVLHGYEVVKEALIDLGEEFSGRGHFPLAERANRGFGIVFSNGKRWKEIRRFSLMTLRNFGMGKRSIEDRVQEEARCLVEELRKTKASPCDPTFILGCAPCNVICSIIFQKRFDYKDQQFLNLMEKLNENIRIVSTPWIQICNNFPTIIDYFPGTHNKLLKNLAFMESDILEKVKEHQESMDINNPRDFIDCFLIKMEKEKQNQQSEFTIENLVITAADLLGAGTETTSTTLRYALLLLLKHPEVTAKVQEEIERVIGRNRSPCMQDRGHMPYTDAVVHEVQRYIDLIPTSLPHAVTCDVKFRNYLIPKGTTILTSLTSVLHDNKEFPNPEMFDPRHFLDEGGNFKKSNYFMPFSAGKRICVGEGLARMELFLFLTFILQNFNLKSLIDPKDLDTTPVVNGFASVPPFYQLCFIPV
Chain of Paired box protein Pax-8 (Q06710 whole entry): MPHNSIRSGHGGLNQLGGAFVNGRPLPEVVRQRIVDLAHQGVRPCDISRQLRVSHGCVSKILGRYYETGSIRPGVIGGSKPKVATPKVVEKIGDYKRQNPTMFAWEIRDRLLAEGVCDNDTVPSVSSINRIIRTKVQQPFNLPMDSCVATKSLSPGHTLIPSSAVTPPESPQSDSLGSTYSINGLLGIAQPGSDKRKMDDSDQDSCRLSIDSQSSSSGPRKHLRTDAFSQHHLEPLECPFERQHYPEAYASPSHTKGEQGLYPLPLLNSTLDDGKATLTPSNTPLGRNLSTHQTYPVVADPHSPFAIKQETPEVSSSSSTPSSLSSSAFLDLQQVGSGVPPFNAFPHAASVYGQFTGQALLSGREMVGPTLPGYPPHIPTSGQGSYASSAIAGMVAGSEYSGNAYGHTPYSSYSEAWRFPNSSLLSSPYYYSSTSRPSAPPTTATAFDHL

Cc1cc(O)nc(SCC(=O)Nc2ccccc2C#N)c1C#N
IC50 (Leucine aminopeptidase): 13.9 µM (active)

N=C(N)Nc1ccc(Cl)cc1
AC50 (Cytochrome P450 2D6): 31.6 µM (inconclusive) | AC50 (Cytochrome P450 2C19): inconclusive

CSc1cc(-c2ccccc2)n(Cc2c(Cl)cccc2Cl)c(=O)c1C#N
EC50 (BJ [1]): 64.7 µM (inconclusive) | EC50 (BJ [2]): 5.96 µM (active) | EC50 (BJ [3]): 2.86 µM (active) | EC50 [4]: 3.1 µM (active)

Cn1c(CCN2CCN(c3ccccn3)CC2)nc2cc(NS(=O)(=O)c3ccc(Cl)cc3)ccc21
AC50 (Paired box protein Pax-8): 8.15 µM (active)

Cc1ccc(S(=O)(=O)CCC(=O)Nc2nc3c(s2)CCCC3)cc1
AC50 (Cytochrome P450 2D6): 28.2 µM (inconclusive) | CC50 [5]: 32.3 µM (active) | AC50 (Cytochrome P450 1A2): 15.8 µM (inconclusive)

O=C(NC(=S)Nc1ccccc1)c1cncc(C#Cc2ccccc2)c1
IC50 [6]: > 66 µM (inactive) | IC50 [7]: > 66 µM (inactive)

COc1ccc(C2C(C(=O)c3ccco3)=C(O)C(=O)N2c2nnc(C)s2)cc1OC (stereo not given)
IC50 [6]: 50.4 µM (inactive) | EC50 [8]: 297 µM (active) | EC50 [9]: > 300 µM (not active) | IC50 [7]: > 66 µM (inactive)

Fc1ccc(Nc2ncncc2-c2ccccc2C(F)(F)F)cc1
AC50 (Cytochrome P450 2D6): 39.8 µM (inconclusive) | AC50 (Cytochrome P450 1A2): 20 µM (inconclusive)

O=C(O)c1ccc(Cn2cnc3cccnc32)cc1
IC50 [6]: 55.8 µM (inactive) | IC50 [7]: > 66 µM (inactive)

[O-]c1ccccc1-[n+]1c(-c2ccccc2)cc(-c2ccccc2)cc1-c1ccccc1
AC50 (INS1): 6.35 µM (active) | EC50 [10]: 850 nM (active) | EC50 (BJ [1]): 14.2 µM (active) | EC50 [11]: > 160 µM (inconclusive) | EC50 (BJ [2]): 11.7 µM (active) | EC50 (BJ [3]): > 150 µM (inconclusive) | EC50 [12]: > 120 µM (not active) | EC50 [4]: 11.4 µM (active) | EC50 [13]: > 120 µM (not active) | EC50 [14]: > 120 µM (not active)

COc1ccc(NC(S)=Nc2cccc(Cl)c2)cc1OC
IC50 [6]: > 66 µM (inactive) | IC50 [7]: > 66 µM (inactive)

COCCCN=C(S)N(CCO)Cc1cc2cc3c(cc2nc1O)OCCO3
IC50 [6]: > 66 µM (inactive) | IC50 [7]: > 66 µM (inactive)
